Laboratory results as given in US20170172994A1, “COMPOSITIONS AND METHODS FOR TREATING BACTERIAL INFECTIONS” (WOCKHARDT LIMITED, priority 2013, published 2017).

How the values were obtained:
[1] = target: T1, Pseudomonas PBP 3 (Pseudomonas aeruginosa, UniProt G3XD46); experiment: biochemical; format: binding
T1 construct: endogenous in cells
Protocol: The phrase “selective and high affinity PBP binder” refers to a PBP binder which binds to only one PBP with very high affinity. In general, the term “selective and high affinity PBP binder” also includes those binders where a substantial fraction of binder selectively binds to only one PBP with high affinity.
The reaction mixtures were then denatured with 20 μl each of SDS-denaturing solution at 100° C. for 3 min PBPs were separated through 10% SDS polyacrylamide gel electrophoresis (Bio-Rad Laboratories, Hercules, Calif.). The protein gels were rinsed in water immediately after electrophoresis.

[2] = test system: P. aeruginosa PAO1; experiment: Time kill study (viability count); format: cell-based; details: for Bacterial count: Compound of Formula (III) 4 μg/ml, alone or combined
Protocol: (§1) The antibacterial effectiveness of various antibacterial agents in presence of a compound of Formula (III) was investigated and the results are detailed below. In a typical study, overnight cultures in Trypticase soya broth (TSB) were brought to log phase by 1 in 10 dilution in fresh cation adjusted Mueller Hinton Broth (MHB) and incubation for 2.5 hours at 35° C. in orbital shaker. Log phase cultures were diluted to desired inoculums in flasks with MHB, containing various drug concentrations. Flasks were incubated at 35° C. in orbital shaker with rotational speed of 125 rpm. Viability count was determined by 1 in 10 serial dilutions of samples in normal saline and surface spreading of 10 μl of dilutions in duplicate on Trypticase soya agar plates. Plates were incubated for 24 hours at 35° C. and colonies were enumerated to determine the colony forming units (CFU) per ml volume.

[3] = test system: E. coli ATCC 25922; experiment: Time kill study (viability count); format: cell-based; details: for Bacterial count: Compound of Formula (III) 2 μg/ml, alone or combined
Protocol: as §1

[4] = test system: Acinetobacter baumannii NCTC 13304 producing carbapenem hydrolyzing Class D OXA enzyme (OXA 27); experiment: Time kill study (viability count); format: cell-based; details: Cefepime 8 μg/ml, Compound of Formula (III) 8 μg/ml, Imipenem 16 μg/ml
Protocol: as §1

[5] = test system: Pseudomonas aeruginosa NCTC 13437 producing carbapenem hydrolyzing MBL (VIM 10) & Class A (VEB1); experiment: Time kill study (viability count); format: cell-based; details: Cefepime 8 μg/ml, Compound of Formula (III) 8 μg/ml, Imipenem 16 μg/ml
Protocol: as §1

[6] = test system: ESBL enzymes from K. pneumoniae S48 producing Metalo betalactamase (NDM4) and Class A (CTX-M, SHV, TEM) beta-lactamase; experiment: Beta-lactamase stability study (crude enzyme extract, then drug diffusion assay on E. coli ATCC 25922); format: biochemical; details: for Inhibition zone diameter after treatment with beta-lactamase enzyme: 40 μg/ml, zone on E. coli ATCC 25922
Protocol: Next, the beta-lactamase stability of some of these compounds was evaluated. In a typical stability study, ESBL enzymes from K. pneumoniae S48 producing Metalo betalactamase (NDM4) and Class A (CTX-M, SHV, TEM) beta-lactamase were isolated from freshly grown culture by 5 repetitive cycles of freeze and thaw in liquid nitrogen. […] After the stipulated incubation duration, the test compounds were extracted from the reaction mixture by the addition of 0.5 ml of Acetonitrile in 1:1 ratio (final concentration of test compound—40 μg/ml) and centrifuged at 12000 rpm for 2 min to separate precipitated protein. The activity of test compounds was measured from the supernatant by performing microbiological drug diffusion assay. For drug diffusion assay, Muller-Hinton Agar (MHA) seeded with E. coli ATCC 25922 was poured on to a bioassay plate placed on a flat surface and allowed to solidify. Appropriate concentration of the standalone and enzyme treated test compound dilutions were added to 6 mm wells cut with the help of a borer. The antibacterial activity of the test compounds was measured in terms of zones of inhibition appearing after 18-24 hours of incubation at 37° C. Measurement of diameter of zone of inhibition was undertaken to the nearest whole value with the help of ruler.

[7] = test system: K. pneumoniae B88; experiment: MIC determination; format: cell-based; details: Klebsiella pneumoniae; K. pneumoniae B88 (NDM, SHV, TEM)
Protocol: (§2) In a typical procedure for determining MIC values, overnight grown bacterial cultures were diluted appropriately and inoculated on the agar media containing doubling concentrations of the test compounds. Observation for growth or no growth was performed after 16-20 hours of incubation at 35±2° C. in ambient air. The overall procedure was performed as per Clinical and Laboratory Standards Institute (CLSI) recommendations (Clinical and Laboratory Standards Institute (CLSI), Performance Standards for Antimicrobial Susceptibility Testing, 20th Informational Supplement, M 100-S20, Volume 30, No. 1, 2010).

[8] = test system: P. mirabilis G 186; experiment: MIC determination; format: cell-based; details: Proteus mirabilis, G186; P. mirabilis G 186 (NDM, TEM)
Protocol: as §2

[9] = test system: K. pneumoniae B88; experiment: Minimum filamentation / spheroplasting concentration; details: K. pneumoniae B88 (NDM, SHV, TEM); minimum spheroplasting concentration
Excerpt: The term “MSC” as used herein refers to minimum spheroplasting concentration, which is the minimum concentration of an antibacterial agent at which about 80% of bacterial cells covert into spheroplasts.
The term “MFC” as used herein refers to minimum filamentation concentration, which is the minimum concentration of an antibacterial agent at which about 80% of bacterial cells get elongated to form filament like structures.

T1 sequence (G3XD46 whole entry): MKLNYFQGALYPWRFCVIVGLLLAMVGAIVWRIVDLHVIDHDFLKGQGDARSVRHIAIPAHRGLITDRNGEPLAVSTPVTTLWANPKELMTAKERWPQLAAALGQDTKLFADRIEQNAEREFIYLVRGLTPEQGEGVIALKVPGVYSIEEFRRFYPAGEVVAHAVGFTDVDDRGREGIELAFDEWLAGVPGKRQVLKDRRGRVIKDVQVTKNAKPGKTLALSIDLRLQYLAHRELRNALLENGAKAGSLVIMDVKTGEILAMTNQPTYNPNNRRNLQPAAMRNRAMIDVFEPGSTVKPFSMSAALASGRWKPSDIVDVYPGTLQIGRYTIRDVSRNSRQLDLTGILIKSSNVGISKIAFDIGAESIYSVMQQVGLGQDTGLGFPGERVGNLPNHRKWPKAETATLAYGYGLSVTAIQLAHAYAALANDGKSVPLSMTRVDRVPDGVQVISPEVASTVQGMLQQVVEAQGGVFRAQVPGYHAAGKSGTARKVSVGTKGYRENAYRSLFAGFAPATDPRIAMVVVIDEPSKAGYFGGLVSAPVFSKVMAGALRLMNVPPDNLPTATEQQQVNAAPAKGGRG

O=C(NNC(=O)[C@@H]1CC[C@@H]2CN1C(=O)N2OS(=O)(=O)O)[C@@H]1CCCNC1 [Compound of Formula (III), trans-(2S,5R)-sulfuric acid mono-[2-(N′—[(R)-piperidin-3-carbonyl]-hydrazino Carbonyl)-7-oxo-1,6-diaza-bicyclo[3.2.1]oct-6-yl] Ester]
IC50 [1]: > 10.2 µM
Bacterial count ([2]; 0 hour, Aztreonam 2 μg/ml): 5.74 log (CFU/ml)
Bacterial count ([2]; 0 hour, Cefsulodin 2 μg/ml): 6.81 log (CFU/ml)
Bacterial count ([2]; 2 hours, Aztreonam 2 μg/ml): 6.5 log (CFU/ml)
Bacterial count ([2]; 2 hours, Cefsulodin 2 μg/ml): 7.23 log (CFU/ml)
Bacterial count ([2]; 4 hours, Aztreonam 2 μg/ml): 7.6 log (CFU/ml)
Bacterial count ([2]; 4 hours, Cefsulodin 2 μg/ml): 7.18 log (CFU/ml)
Bacterial count ([2]; 6 hours, Aztreonam 2 μg/ml): 7.9 log (CFU/ml)
Bacterial count ([2]; 6 hours, Cefsulodin 2 μg/ml): 7.5 log (CFU/ml)
Bacterial count ([2]; 24 hours, Aztreonam 2 μg/ml): 8.8 log (CFU/ml)
Bacterial count ([2]; 24 hours, Cefsulodin 2 μg/ml): 8.2 log (CFU/ml)
Bactericidal action (in words) ([2]; P. aeruginosa PAO1, standalone or combination, Tables 6 and 7): did not exhibit any bactericidal action
Bacterial count ([3]; 0 hour, Aztreonam 1 μg/ml): 7.47 log (CFU/ml)
Bacterial count ([3]; 0 hour, Cefoxitin 1 μg/ml): 7.47 log (CFU/ml)
Bacterial count ([3]; 0 hour, Cefsulodin 16 μg/ml): 7.47 log (CFU/ml)
Bacterial count ([3]; 2 hours, Aztreonam 1 μg/ml): 7.85 log (CFU/ml)
Bacterial count ([3]; 2 hours, Cefoxitin 1 μg/ml): 7.85 log (CFU/ml)
Bacterial count ([3]; 2 hours, Cefsulodin 16 μg/ml): 7.85 log (CFU/ml)
Bacterial count ([3]; 4 hours, Aztreonam 1 μg/ml): 7.88 log (CFU/ml)
Bacterial count ([3]; 4 hours, Cefoxitin 1 μg/ml): 7.88 log (CFU/ml)
Bacterial count ([3]; 4 hours, Cefsulodin 16 μg/ml): 7.88 log (CFU/ml)
Bacterial count ([3]; 6 hours, Aztreonam 1 μg/ml): 8.26 log (CFU/ml)
Bacterial count ([3]; 6 hours, Cefoxitin 1 μg/ml): 8.26 log (CFU/ml)
Bacterial count ([3]; 6 hours, Cefsulodin 16 μg/ml): 8.26 log (CFU/ml)
Bacterial count ([3]; 24 hours, Aztreonam 1 μg/ml): 8.34 log (CFU/ml)
Bacterial count ([3]; 24 hours, Cefoxitin 1 μg/ml): 8.34 log (CFU/ml)
Bacterial count ([3]; 24 hours, Cefsulodin 16 μg/ml): 8.34 log (CFU/ml)
Bactericidal action (in words) ([3]; E. coli ATCC 25922, standalone or combination, Tables 3 to 5): did not exhibit any significant bactericidal action
Bacterial count ([4]; 0 hour): 6.3 log (CFU/ml)
Bacterial count ([4]; 2 hours): 7.5 log (CFU/ml)
Bacterial count ([4]; 4 hours): 7.9 log (CFU/ml)
Bacterial count ([4]; 6 hours): 8.1 log (CFU/ml)
Bacterial count ([4]; 8 hours): 8.1 log (CFU/ml)
Bacterial count ([5]; 0 hour): 6.0 log (CFU/ml)
Bacterial count ([5]; 2 hours): 6.55 log (CFU/ml)
Bacterial count ([5]; 4 hours): 5.9 log (CFU/ml)
Bacterial count ([5]; 6 hours): 5.81 log (CFU/ml)
Bacterial count ([5]; 12 hours): 6.2 log (CFU/ml)
Inhibition zone diameter after treatment with beta-lactamase enzyme ([6]; 0 hour incubation at 37° C.): 16 mm
Inhibition zone diameter after treatment with beta-lactamase enzyme ([6]; 1 hour incubation at 37° C.): 16 mm
Inhibition zone diameter after treatment with beta-lactamase enzyme ([6]; 2 hours incubation at 37° C.): 16 mm
Inhibition zone diameter after treatment with beta-lactamase enzyme ([6]; 24 hours incubation at 37° C.): 16 mm
Stability to beta-lactamase (in words) ([6]; carbapenem hydrolyzing metallo beta-lactamase, up to 24 hours): stable and not inactivated by the beta-lactamase
MIC [7]: 8 µg/mL
MIC [8]: > 64 µg/mL
MSC [9]: 0.12 µg/mL
